Positions of bridges follow the written chain, without caps; N, C: chain ends. Residues, ends and D or L forms follow the SMILES beside them.
Biological target: T1, AM1R (Homo sapiens, UniProt O60895+Q16602)
T1 construct: EYFP; ECFP; expressed in transfected cells; host or cells: HEK-293 (transient co-transfection)
Assay: Activity determination in vitro: cAMP/CRE-luciferase reporter assay in HEK293 cells transiently co-transfected with CLR and RAMP2
Format: cell-based
Conditions: for Emax: HEK293, normalized to [G14]ADM(14-52); for EC50: HEK293 with CLR/RAMP2, CRE-luciferase, 3 h stimulation
Protocol: (1a) Activity Determination of Adrenomedullin Analogues in vitro
Cell Culture HEK-293 cells (human embryonic kidney cells) were cultured in Ham's F-12/DMEM (1/1; v/v) containing 15% FCS under humidified atmosphere at 37° C. and 5% CO2 in 75 cm^2 cell culture flasks.
Cells were cultured in 75 cm^2 flasks to 70-80% confluency. 45 μl Metafectene® Pro was diluted in 900 ρl Ham's F-12/DMEM (1/1; v/v) and incubated for 20 min at room temperature. 9 μg plasmid containing DNA of CLR fused to EYFP and 3 μg plasmid containing DNA of RAMP2 fused to ECFP were dissolved in 900 μl Ham's F-12/DMEM (1/1; v/v). The plasmid solution was mixed with the Metafectene® Pro solution and incubated for 25 min at room temperature. Medium was removed from the cells and replaced by 6 m1 Ham's F-12/DMEM (1/1; v/v) containing 15% FCS. After addition of transfection solution the cells were incubated for 3 h under humidified atmosphere at 37° C. and 5% CO2. For the second transfection 45 μl Metafectene® Pro was diluted in 900 μl Ham's F-12/DMEM (1/1; v/v) and incubated for 20 min at room temperature. 12 μg of pGL4.29[Luc2P/CRE/Hygro] plasmid containing DNA for the luciferase reporter gene luc2P (with CRE promotor region) were dissolved in 900 μl Ham's F-12/DMEM (1/1; v/v). The plasmid solution was mixed with the Metafectene® Pro solution and incubated for 25 min at room temperature. Medium was removed from the cells and replaced by 6 m1 Ham's F-12/DMEM (1/1; v/v) containing 15% FCS. After addition of transfection solution, the cells were incubated under humidified atmosphere at 37° C. and 5% CO2 over night.
For coating of 96-well-plates, 50 μl of a poly-D-lysine solution in DPBS (0.1 mg/ml) were pipetted in each well and incubated for 40 min. After removal of poly-D-lysine, each well was washed with 50 μl DPBS. Transiently transfected cells were detached from the cell culture flask by removal of the medium, 2-fold washing with 5 m1 DPBS and resuspending in 40 m1 Ham's F-12/DMEM (1/1; v/v) containing 15% FCS. 90,000 to 120,000 cells in 150 μl Ham's F-12/DMEM (1/1; v/v) containing 15% FCS were seeded per well and the plates were incubated under humidified atmosphere at 37° C. and 5% CO2 over night.
For each ligand, a serial dilution with eight different concentrations was prepared using Ham's F^12/DMEM (1/1; v/v). Before stimulation, the medium on the cells was replaced by 100 μl Ham's F^12/DMEM (1/1; v/v) and the plates were incubated for 1 h under humidified atmosphere at 37° C. and 5% CO2. For stimulation, the medium was removed and the cells were incubated for 3 h in 80 μl of ligand-solution under humidified atmosphere at 37° C. and 5% CO2. In addition 80 μl of a 5 μM forskolin solution in Ham's F-12/DMEM (1/1; v/v) was used as a positive control and 80 μl of Ham's F-12/DMEM (1/1; v/v) as a negative control. Each concentration and the controls were tested as triplicates.
After 3 h of stimulation, the solutions were removed and the cells were washed with 50 μl of Ham's F-12/DMEM (1/1; v/v) perwell. After 10 m incubation in 30 μl of Ham's F-12/DMEM (1/1; v/v) at room temperature, 30 μl of luciferase-solution (ONE-Glo™ Luciferase Assay System) was added and the luminescence was directly measured using an Infinite M200 (Tecan).
Data analysis of the luminescence measurement was carried out with GraphPad Prism 5. Therefore, the measured luminescence values of each plate were first corrected on the base of the respective average of forskolin stimulation. Afterwards they were normalized to [G14]ADM(14-52), which was used as standard peptide in every assay. After correction and normalization, data was analyzed using non-linear regression giving dose-response curves for each tested ligand.

T1 sequence (Q16602 23-461): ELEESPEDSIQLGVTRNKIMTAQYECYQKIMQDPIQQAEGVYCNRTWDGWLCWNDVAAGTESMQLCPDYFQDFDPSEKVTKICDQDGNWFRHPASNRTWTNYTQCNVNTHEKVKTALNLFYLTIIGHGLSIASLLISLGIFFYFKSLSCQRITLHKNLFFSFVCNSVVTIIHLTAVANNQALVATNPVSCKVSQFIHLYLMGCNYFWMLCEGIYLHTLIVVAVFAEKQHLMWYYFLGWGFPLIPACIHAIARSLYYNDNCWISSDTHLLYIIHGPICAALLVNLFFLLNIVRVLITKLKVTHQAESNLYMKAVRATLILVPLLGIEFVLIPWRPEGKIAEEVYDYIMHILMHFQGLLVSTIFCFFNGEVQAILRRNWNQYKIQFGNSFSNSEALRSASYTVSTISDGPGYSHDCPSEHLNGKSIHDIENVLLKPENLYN
T1 sequence (O60895 43-175): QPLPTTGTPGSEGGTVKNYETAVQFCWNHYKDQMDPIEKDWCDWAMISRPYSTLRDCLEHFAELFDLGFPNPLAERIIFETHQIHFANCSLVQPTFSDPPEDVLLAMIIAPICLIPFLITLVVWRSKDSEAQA

Emax | EC50 | Compound
102 ± 3% | 3.9 nM | CC[C@H](C)[C@H](NC(=O)[C@H](CCC(N)=O)NC(=O)[C@H](Cc1c[nH]cn1)NC(=O)[C@H](C)NC(=O)[C@H](CC(C)C)NC(=O)[C@H](CCCCN)NC(=O)[C@H](CCC(N)=O)NC(=O)[C@@H](NC(=O)[C@@H](NC(=O)[C@@H]1CSSC[C@H](NC(=O)CNC(=O)CN)C(=O)N[C@@H](CCCNC(=N)N)C(=O)N[C@@H](Cc2ccccc2)C(=O)NCC(=O)N[C@@H]([C@@H](C)O)C(=O)N1)[C@@H](C)O)C(C)C)C(=O)N[C@@H](Cc1ccc(O)cc1)C(=O)N[C@@H](CCC(N)=O)C(=O)N[C@@H](Cc1ccccc1)C(=O)N[C@H](C(=O)N[C@@H](CC(=O)O)C(=O)N[C@@H](CCCCN)C(=O)N[C@@H](CC(=O)O)C(=O)N[C@@H](CCCCN)C(=O)N[C@@H](CC(=O)O)C(=O)N[C@@H](CC(N)=O)C(=O)N[C@H](C(=O)N[C@@H](C)C(=O)N1CCC[C@H]1C(=O)N[C@H]1CCCCNC(=O)C[C@@H](C(=O)N2CCC[C@H]2C(=O)N[C@@H](CCC(N)=O)C(=O)NCC(=O)N[C@@H](Cc2ccc(O)cc2)C(N)=O)NC(=O)[C@H]([C@@H](C)CC)NC(=O)[C@H](CCCCN)NC(=O)[C@H](CO)NC1=O)C(C)C)[C@@H](C)O [Example 1, ((4R,7S,13S,16S,19R)-19-(2-(2-aminoacetamido)acetamido)-13-benzyl-16-(3-guanidinopropyl)-7-((R)-1-hydroxyethyl)-6,9,12,15,18-pentaoxo-1,2-dithia-5,8,11,14,17-pentaazacycloicosane-4-carbonyl)-L-threonyl-ADM(23-43)-((2S,5S,8S,11S,18S)-5-(4-aminobutyl)-18-(λ^2-azaneyl)-8-((S)-sec-butyl)-2-(hydroxymethyl)-3,6,9,13,19-pentaoxo-1,4,7,10,14-pentaazacyclononadecane-11-carbonyl)-L-prolyl-ADM(50-52)] (H-GGCRFGTCTVQKLAHQIYQFTDKDKDNVAPKSKIDPQGY-NH2; disulfide 3-8; lactam 31-35)
91 ± 1% | 4.8 nM | CC[C@H](C)[C@H](NC(=O)[C@H](CCC(N)=O)NC(=O)[C@H](Cc1c[nH]cn1)NC(=O)[C@H](C)NC(=O)[C@H](CC(C)C)NC(=O)[C@H](CCCCN)NC(=O)[C@H](CCC(N)=O)NC(=O)[C@@H](NC(=O)[C@@H](NC(=O)[C@@H]1CSSC[C@H](NC(=O)CNC(=O)CN)C(=O)N[C@@H](CCCNC(=N)N)C(=O)N[C@@H](Cc2ccccc2)C(=O)NCC(=O)N[C@@H]([C@@H](C)O)C(=O)N1)[C@@H](C)O)C(C)C)C(=O)N[C@@H](Cc1ccc(O)cc1)C(=O)N[C@@H](CCC(N)=O)C(=O)N[C@@H](Cc1ccccc1)C(=O)N[C@H](C(=O)N[C@@H](CC(=O)O)C(=O)N[C@@H](CCCCN)C(=O)N[C@@H](CC(=O)O)C(=O)N[C@@H](CCCCN)C(=O)N[C@@H](CC(=O)O)C(=O)N[C@@H](CC(N)=O)C(=O)N[C@H](C(=O)N[C@@H](C)C(=O)N1CCC[C@H]1C(=O)N[C@H]1CC(=O)NCCCC[C@@H](C(=O)N2CCC[C@H]2C(=O)N[C@@H](CCC(N)=O)C(=O)NCC(=O)N[C@@H](Cc2ccc(O)cc2)C(N)=O)NC(=O)[C@H]([C@@H](C)CC)NC(=O)[C@H](CCCCN)NC(=O)[C@H](CO)NC1=O)C(C)C)[C@@H](C)O [Example 2, ((4R,7S,13S,16S,19R)-19-(2-(2-aminoacetamido)acetamido)-13-benzyl-16-(3-guanidinopropyl)-7-((R)-1-hydroxyethyl)-6,9,12,15,18-pentaoxo-1,2-dithia-5,8,11,14,17-pentaazacycloicosane-4-carbonyl)-L-threonyl-ADM(23-43)-((3S,6S,9S,12S,20S)-6-(4-aminobutyl)-12-(λ^2-azaneyl)-3-((S)-sec-butyl)-9-(hydroxymethyl)-2,5,8,11,14-pentaoxo-1,4,7,10,15-pentaazacycloicosane-20-carbonyl)-L-prolyl-ADM(50-52)] (H-GGCRFGTCTVQKLAHQIYQFTDKDKDNVAPDSKIKPQGY-NH2; disulfide 3-8; lactam 31-35)
93 ± 2% | 16 nM | CC[C@H](C)[C@H](NC(=O)[C@H](CCC(N)=O)NC(=O)[C@H](Cc1c[nH]cn1)NC(=O)[C@H](C)NC(=O)[C@H](CC(C)C)NC(=O)[C@H](CCCCN)NC(=O)[C@H](CCC(N)=O)NC(=O)[C@@H](NC(=O)[C@@H](NC(=O)[C@@H]1CSSC[C@H](NC(=O)CNC(=O)CN)C(=O)N[C@@H](CCCNC(=N)N)C(=O)N[C@@H](Cc2ccccc2)C(=O)NCC(=O)N[C@@H]([C@@H](C)O)C(=O)N1)[C@@H](C)O)C(C)C)C(=O)N[C@@H](Cc1ccc(O)cc1)C(=O)N[C@@H](CCC(N)=O)C(=O)N[C@@H](Cc1ccccc1)C(=O)N[C@H](C(=O)N[C@@H](CC(=O)O)C(=O)N[C@@H](CCCCN)C(=O)N[C@@H](CC(=O)O)C(=O)N[C@@H](CCCCN)C(=O)N[C@@H](CC(=O)O)C(=O)N[C@@H](CC(N)=O)C(=O)N[C@H](C(=O)N[C@@H](C)C(=O)N1CCC[C@H]1C(=O)N[C@H]1CCCCNC(=O)CC[C@@H](C(=O)N2CCC[C@H]2C(=O)N[C@@H](CCC(N)=O)C(=O)NCC(=O)N[C@@H](Cc2ccc(O)cc2)C(N)=O)NC(=O)[C@H]([C@@H](C)CC)NC(=O)[C@H](CCCCN)NC(=O)[C@H](CO)NC1=O)C(C)C)[C@@H](C)O [Example 3, ((4R,7S,13S,16S,19R)-19-(2-(2-aminoacetamido)acetamido)-13-benzyl-16-(3-guanidinopropyl)-7-((R)-1-hydroxyethyl)-6,9,12,15,18-pentaoxo-1,2-dithia-5,8,11,14,17-pentaazacycloicosane-4-carbonyl)-L-threonyl-ADM(23-43)-((2S,5S,8S,11S,20S)-5-(4-aminobutyl)-20-(λ^2-azaneyl)-8-((S)-sec-butyl)-2-(hydroxymethyl)-3,6,9,14,21-pentaoxo-1,4,7,10,15-pentaazacyclohenicosane-11-carbonyl)-L-prolyl-ADM(50-52)] (H-GGCRFGTCTVQKLAHQIYQFTDKDKDNVAPKSKIEPQGY-NH2; disulfide 3-8; lactam 31-35)
105 ± 5% | 17 nM | CC[C@H](C)[C@H](NC(=O)[C@H](CCC(N)=O)NC(=O)[C@H](Cc1c[nH]cn1)NC(=O)[C@H](C)NC(=O)[C@H](CC(C)C)NC(=O)[C@H](CCCCN)NC(=O)[C@H](CCC(N)=O)NC(=O)[C@@H](NC(=O)[C@@H](NC(=O)[C@@H]1CSSC[C@H](NC(=O)CNC(=O)[C@@H](N)CCCCNC(=O)CCCCCCCCCCCCCCCCC(=O)O)C(=O)N[C@@H](CCCNC(=N)N)C(=O)N[C@@H](Cc2ccccc2)C(=O)NCC(=O)N[C@@H]([C@@H](C)O)C(=O)N1)[C@@H](C)O)C(C)C)C(=O)N[C@@H](Cc1ccc(O)cc1)C(=O)N[C@@H](CCC(N)=O)C(=O)N[C@@H](Cc1ccccc1)C(=O)N[C@H](C(=O)N[C@@H](CC(=O)O)C(=O)N[C@@H](CCCCN)C(=O)N[C@@H](CC(=O)O)C(=O)N[C@@H](CCCCN)C(=O)N[C@@H](CC(=O)O)C(=O)N[C@@H](CC(N)=O)C(=O)N[C@H](C(=O)N[C@@H](C)C(=O)N1CCC[C@H]1C(=O)N[C@@H](CCCNC(=N)N)C(=O)N[C@@H](CO)C(=O)N[C@@H](CCCCN)C(=O)N[C@H](C(=O)N[C@@H](CO)C(=O)N1CCC[C@H]1C(=O)N[C@@H](CCC(N)=O)C(=O)NCC(=O)N[C@@H](Cc1ccc(O)cc1)C(N)=O)[C@@H](C)CC)C(C)C)[C@@H](C)O [Example 5, ((4R,7S,13S,16S,19R)-19-(2-((S)-2-amino-6-(17-carboxyoctadecanamido)hexanamido)acetamido)-13-benzyl-16-(3-guanidinopropyl)-7-((R)-1-hydroxyethyl)-6,9,12,15,18-pentaoxo-1,2-dithia-5,8,11,14,17-pentaazacycloicosane-4-carbonyl)-L-threonyl-ADM(23-52)]
